Assay results from the NIST ThermoML archive (doi:10.1016/j.jct.2010.05.009).
Numbers after ± are expanded uncertainties.

Columns and labels:
[1] = refractive index (Na D-line) (dimensionless); xn = mol fraction of the nth substance listed; conditions: 101 kPa, Liquid, Standard Abbe refractometry
[2] = xn = mol fraction of the nth substance listed; conditions: 101 kPa, Liquid; for viscosity: Capillary tube (Ostwald / Ubbelohde) method; for mass density: Vibrating tube method

CCC(C)(C)O [2-methylbutan-2-ol] + C1CCOC1
Conditions | mass density, 288.15 K [kg/m3] | mass density, 298.15 K [kg/m3] | mass density, 308.15 K [kg/m3] | refractive index, 288.15 K | refractive index, 298.15 K | refractive index, 308.15 K | viscosity, 288.15 K [mPa·s] | viscosity, 298.15 K [mPa·s] | viscosity, 308.15 K [mPa·s]
[1], x1 = 0.1028 | – | – | – | 1.4076 ± 0.0004 | 1.4027 ± 0.0004 | 1.3979 ± 0.0004 | – | – | –
[1], x1 = 0.1791 | – | – | – | 1.4069 ± 0.0004 | 1.4022 ± 0.0004 | 1.3974 ± 0.0004 | – | – | –
[1], x1 = 0.2676 | – | – | – | 1.4065 ± 0.0004 | 1.4018 ± 0.0004 | 1.3972 ± 0.0004 | – | – | –
[1], x1 = 0.3601 | – | – | – | 1.4064 ± 0.0004 | 1.4018 ± 0.0004 | 1.3971 ± 0.0004 | – | – | –
[1], x1 = 0.45 | – | – | – | 1.4066 ± 0.0004 | 1.402 ± 0.0004 | 1.3972 ± 0.0004 | – | – | –
[1], x1 = 0.5402 | – | – | – | 1.4068 ± 0.0004 | 1.4022 ± 0.0004 | 1.3974 ± 0.0004 | – | – | –
[1], x1 = 0.6295 | – | – | – | 1.407 ± 0.0004 | 1.4023 ± 0.0004 | 1.3976 ± 0.0004 | – | – | –
[1], x1 = 0.7058 | – | – | – | 1.4071 ± 0.0004 | 1.4024 ± 0.0004 | 1.3977 ± 0.0004 | – | – | –
[1], x1 = 0.8097 | – | – | – | 1.4071 ± 0.0004 | 1.4024 ± 0.0004 | 1.3977 ± 0.0004 | – | – | –
[1], x1 = 0.8903 | – | – | – | 1.4069 ± 0.0004 | 1.4022 ± 0.0004 | 1.3975 ± 0.0004 | – | – | –
[1], x1 = 0.9629 | – | – | – | 1.4065 ± 0.0004 | 1.4018 ± 0.0004 | 1.3972 ± 0.0004 | – | – | –
[1], x1 = 1 | – | – | – | 1.4062 ± 0.0004 | 1.4015 ± 0.0004 | 1.3968 ± 0.0004 | – | – | –
[2], x1 = 0.1028 | 881.2 ± 0.24 | 870.63 ± 0.24 | 859.92 ± 0.24 | – | – | – | 0.7142 ± 0.0059 | 0.5079 ± 0.0044 | 0.4359 ± 0.0038
[2], x1 = 0.1791 | 873.29 ± 0.24 | 862.93 ± 0.24 | 852.42 ± 0.24 | – | – | – | 0.895 ± 0.0073 | 0.5724 ± 0.0049 | 0.4592 ± 0.004
[2], x1 = 0.2676 | 865.01 ± 0.24 | 854.87 ± 0.24 | 844.57 ± 0.24 | – | – | – | 1.13 ± 0.0091 | 0.6232 ± 0.0053 | 0.5449 ± 0.0046
[2], x1 = 0.3601 | 857.15 ± 0.24 | 847.22 ± 0.24 | 837.11 ± 0.24 | – | – | – | 1.365 ± 0.011 | 0.7532 ± 0.0063 | 0.6428 ± 0.0053
[2], x1 = 0.45 | 850.2 ± 0.24 | 840.46 ± 0.24 | 830.51 ± 0.24 | – | – | – | 1.63 ± 0.013 | 0.8859 ± 0.0073 | 0.747 ± 0.0061
[2], x1 = 0.5402 | 843.79 ± 0.24 | 834.19 ± 0.24 | 824.37 ± 0.24 | – | – | – | 1.968 ± 0.015 | 1.064 ± 0.0087 | 0.8887 ± 0.0072
[2], x1 = 0.6295 | 837.94 ± 0.24 | 828.48 ± 0.24 | 818.76 ± 0.24 | – | – | – | 2.399 ± 0.019 | 1.288 ± 0.01 | 1.055 ± 0.0084
[2], x1 = 0.7058 | 833.16 ± 0.24 | 823.78 ± 0.24 | 814.12 ± 0.24 | – | – | – | 2.849 ± 0.022 | 1.548 ± 0.012 | 1.232 ± 0.0097
[2], x1 = 0.8097 | 826.96 ± 0.24 | 817.62 ± 0.24 | 808.01 ± 0.24 | – | – | – | 3.623 ± 0.028 | 2.008 ± 0.016 | 1.548 ± 0.012
[2], x1 = 0.8903 | 821.89 ± 0.24 | 812.56 ± 0.24 | 802.98 ± 0.24 | – | – | – | 4.381 ± 0.033 | 2.517 ± 0.02 | 1.907 ± 0.015
[2], x1 = 0.9629 | 816.9 ± 0.24 | 807.57 ± 0.24 | 798.22 ± 0.24 | – | – | – | 5.245 ± 0.04 | 3.052 ± 0.024 | 2.234 ± 0.017
[2], x1 = 1 | 814.01 ± 0.24 | 804.88 ± 0.24 | 795.52 ± 0.24 | – | – | – | 5.867 ± 0.043 | 3.478 ± 0.027 | 2.504 ± 0.019
